The target in test [1] is T1, Pro1 (γ-glutamyl kinase, GK) (Saccharomyces cerevisiae, UniProt P32264).
T1 sequence (P32264 1-428): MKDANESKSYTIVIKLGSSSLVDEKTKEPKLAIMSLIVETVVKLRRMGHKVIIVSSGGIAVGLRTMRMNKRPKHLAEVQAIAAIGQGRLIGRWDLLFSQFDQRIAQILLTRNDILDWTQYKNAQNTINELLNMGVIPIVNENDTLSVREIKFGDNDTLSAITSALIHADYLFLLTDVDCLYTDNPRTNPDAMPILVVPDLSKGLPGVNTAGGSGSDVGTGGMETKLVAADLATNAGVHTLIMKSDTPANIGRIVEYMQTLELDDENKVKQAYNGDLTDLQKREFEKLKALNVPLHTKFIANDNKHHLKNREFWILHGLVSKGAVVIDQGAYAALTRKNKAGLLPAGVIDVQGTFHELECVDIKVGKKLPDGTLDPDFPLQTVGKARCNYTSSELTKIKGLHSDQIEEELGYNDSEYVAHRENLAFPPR
The experiment in a line: PK/LDH-coupled ADP production, NADH oxidation at […] nm. It counts as biochemical. As to conditions: 10 mM MgCl2, 100 mM HEPES-NaOH pH 7.4, 30 °C, no proline.

The target in test [2] is Pro1 (γ-glutamyl kinase, GK) (Saccharomyces cerevisiae, UniProt P32264, D143A). The experiment in a line: biochemical. The conditions noted are these: read-out: relative activity at 500 mM proline.
For test [3], the target named is Pro1 (γ-glutamyl kinase, GK) (Saccharomyces cerevisiae, UniProt P32264, Q79H). The experiment in a line: biochemical. As to conditions: read-out: relative activity at 500 mM proline.
Test [4] concerns the target Pro1 (γ-glutamyl kinase, GK) (Saccharomyces cerevisiae, UniProt P32264, I150T). Description: biochemical. As to conditions: read-out: relative activity at 500 mM proline.

Sequence of Pro1 (γ-glutamyl kinase, GK) (Saccharomyces cerevisiae, UniProt P32264, D143A) (P32264 whole entry D143A): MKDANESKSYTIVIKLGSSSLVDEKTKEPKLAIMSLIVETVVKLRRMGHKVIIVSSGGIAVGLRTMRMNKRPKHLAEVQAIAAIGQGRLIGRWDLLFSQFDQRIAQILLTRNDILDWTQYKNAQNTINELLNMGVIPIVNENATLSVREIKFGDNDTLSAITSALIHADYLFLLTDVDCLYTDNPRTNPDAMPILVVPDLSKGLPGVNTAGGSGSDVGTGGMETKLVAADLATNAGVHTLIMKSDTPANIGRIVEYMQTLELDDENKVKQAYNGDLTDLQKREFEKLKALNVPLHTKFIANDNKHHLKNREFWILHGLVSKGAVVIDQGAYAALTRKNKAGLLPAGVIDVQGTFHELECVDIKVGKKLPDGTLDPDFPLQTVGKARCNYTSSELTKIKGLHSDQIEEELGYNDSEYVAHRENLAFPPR
Sequence of Pro1 (γ-glutamyl kinase, GK) (Saccharomyces cerevisiae, UniProt P32264, Q79H) (P32264 whole entry Q79H): as the sequence (P32264 whole entry D143A) above, with Q79H, A143D counted along it
Sequence of Pro1 (γ-glutamyl kinase, GK) (Saccharomyces cerevisiae, UniProt P32264, I150T) (P32264 whole entry I150T): as the sequence (P32264 whole entry D143A) above, with A143D, I150T counted along it

Turning to `Nc1ncnc2c1ncn2[C@@H]1O[C@H](COP(=O)(O)OP(=O)(O)OP(=O)(O)O)[C@@H](O)[C@H]1O` [ATP], the “PK/LDH-coupled ADP production, NADH oxidation at 340 nm” value in test [1] (400 mM sodium glutamate, ATP 5 mM) is “GK activity was measured by the production of ADP in an enzyme-coupled system”.

For the molecule `O=C(O)[C@@H]1CCCN1` [proline], the activity at 500000 µM in test [2] was around 95%; in test [3], around 96%; in test [4], 50%.

Take `N[C@@H](CCC(=O)O)C(=O)O` [sodium glutamate]: the “PK/LDH-coupled ADP production, NADH oxidation at 340 nm” value in test [1] (5 mM ATP, glutamate 400 mM) was “sodium glutamate was added to initiate the enzymatic reaction”.

(Values after paper PMC8472793 (Microorganisms, 2021).)
